Like-named read-outs stand apart in the source and are kept apart here.
Test system: patients with locally advanced or metastatic solid tumors
Source text: This was a Phase Ib, multicenter, open-label, dose-finding clinical trial (NCT02610075). […] Three types of treatment schedules were investigated: cohorts bid 1, bid 2, qd 1.1, qd 2.1 and qd 3.1 received bid or qd treatment on a 5/9 schedule (5 days on treatment, followed by 9 days off) on a 14-day cycle. Cohorts qd 1.2, qd 2.2, and qd 3.2 received treatment on a 5/2 schedule (5 days on followed by 2 days off for 2 of 3 weeks) in a 21-day cycle. Cohorts qd 2.3 and qd 3.3 received treatment on a weekly 5/2 schedule in a 21-day cycle (Table 1). The highest dose level(s) at which less than one-third of evaluable patients (none of 3 patients or 1 of 6 patients) experienced a dose-limiting toxicity (DLT) was declared the MTD.
The per protocol analysis set was defined as a subset of the full analysis set, excluding subjects having an important protocol deviation, to be used for analyses of efficacy endpoints if appropriate.

C=CCn1c(=O)c2cnc(Nc3ccc(N4CCN(C)CC4)cc3)nc2n1-c1cccc(C(C)(C)O)n1 [adavosertib, Adavosertib]
1 (16.7) n (%): Abdominal pain (treatment-related AE) (qd 1.2: 200 mg qd 5/2 (n=6)) | Alanine aminotransferase increased (treatment-emergent AE) (qd 1.2: 200 mg qd 5/2 (n=6)) | Back pain (treatment-emergent AE) (qd 1.2: 200 mg qd 5/2 (n=6)) | Constipation (treatment-related AE) (qd 1.2: 200 mg qd 5/2 (n=6)) | Cough (treatment-emergent AE) (qd 1.2: 200 mg qd 5/2 (n=6)) | Decreased appetite (treatment-emergent AE) (qd 1.2: 200 mg qd 5/2 (n=6)) | Decreased appetite (treatment-related AE) (qd 1.2: 200 mg qd 5/2 (n=6)) | Dehydration (treatment-related AE) (qd 1.2: 200 mg qd 5/2 (n=6)) | Dyspepsia (treatment-emergent AE) (qd 1.2: 200 mg qd 5/2 (n=6)) | Dyspepsia (treatment-related AE) (qd 1.2: 200 mg qd 5/2 (n=6)) | Dyspnea (treatment-emergent AE) (qd 1.2: 200 mg qd 5/2 (n=6)) | Fall (treatment-emergent AE) (qd 1.2: 200 mg qd 5/2 (n=6)) | Fatigue (treatment-emergent AE) (qd 1.2: 200 mg qd 5/2 (n=6)) | Fatigue (treatment-related AE) (qd 1.2: 200 mg qd 5/2 (n=6)) | Insomnia (treatment-emergent AE) (qd 1.2: 200 mg qd 5/2 (n=6)) | Muscle spasms (treatment-emergent AE) (qd 1.2: 200 mg qd 5/2 (n=6)) | Neutropenia (treatment-emergent AE) (qd 1.2: 200 mg qd 5/2 (n=6)) | Pyrexia (treatment-emergent AE) (qd 1.2: 200 mg qd 5/2 (n=6)) | Urinary tract infection (treatment-emergent AE) (qd 1.2: 200 mg qd 5/2 (n=6))
1 (25.0) n (%): Abdominal pain (treatment-emergent AE) (qd 2.1: 250 mg qd 5/9 (n=4)) | Abdominal pain (treatment-related AE) (qd 2.1: 250 mg qd 5/9 (n=4)) | Anemia (treatment-emergent AE) (qd 2.1: 250 mg qd 5/9 (n=4)) | Diarrhea (treatment-emergent AE) (qd 2.1: 250 mg qd 5/9 (n=4)) | Diarrhea (treatment-related AE) (qd 2.1: 250 mg qd 5/9 (n=4)) | Edema peripheral (treatment-emergent AE) (qd 2.1: 250 mg qd 5/9 (n=4)) | Pyrexia (treatment-emergent AE) (qd 2.1: 250 mg qd 5/9 (n=4))
0 n (%): Dyspepsia (treatment-related AE) (qd 1.1: 200 mg qd 5/9 (n=5)) | Dyspnea (treatment-emergent AE) (qd 1.1: 200 mg qd 5/9 (n=5)) | Edema peripheral (treatment-emergent AE) (qd 1.1: 200 mg qd 5/9 (n=5)) | Fall (treatment-emergent AE) (qd 1.1: 200 mg qd 5/9 (n=5)) | Hypokalemia (treatment-emergent AE) (qd 1.1: 200 mg qd 5/9 (n=5)) | Insomnia (treatment-emergent AE) (qd 1.1: 200 mg qd 5/9 (n=5)) | Muscle spasms (treatment-emergent AE) (qd 1.1: 200 mg qd 5/9 (n=5)) | Pneumonia (treatment-emergent AE) (qd 1.1: 200 mg qd 5/9 (n=5)) | Thrombocytopenia (treatment-emergent AE) (qd 1.1: 200 mg qd 5/9 (n=5)) | Thrombocytopenia (treatment-related AE) (qd 1.1: 200 mg qd 5/9 (n=5)) | Vomiting (treatment-emergent AE) (qd 1.1: 200 mg qd 5/9 (n=5)) | Vomiting (treatment-related AE) (qd 1.1: 200 mg qd 5/9 (n=5)) | Asthenia (treatment-emergent AE) (qd 1.2: 200 mg qd 5/2 (n=6)) | Asthenia (treatment-related AE) (qd 1.2: 200 mg qd 5/2 (n=6)) | Hypokalemia (treatment-emergent AE) (qd 1.2: 200 mg qd 5/2 (n=6)) | Neutropenia (treatment-related AE) (qd 1.2: 200 mg qd 5/2 (n=6)) | Pneumonia (treatment-emergent AE) (qd 1.2: 200 mg qd 5/2 (n=6)) | Rash (treatment-emergent AE) (qd 1.2: 200 mg qd 5/2 (n=6)) | Thrombocytopenia (treatment-emergent AE) (qd 1.2: 200 mg qd 5/2 (n=6)) | Thrombocytopenia (treatment-related AE) (qd 1.2: 200 mg qd 5/2 (n=6)) | Alanine aminotransferase increased (treatment-emergent AE) (qd 2.1: 250 mg qd 5/9 (n=4)) | Anemia (treatment-related AE) (qd 2.1: 250 mg qd 5/9 (n=4)) | Any treatment-related grade ≥ 3 AE (qd 2.1: 250 mg qd 5/9 (n=4)) | Asthenia (treatment-emergent AE) (qd 2.1: 250 mg qd 5/9 (n=4)) | Asthenia (treatment-related AE) (qd 2.1: 250 mg qd 5/9 (n=4)) | Back pain (treatment-emergent AE) (qd 2.1: 250 mg qd 5/9 (n=4)) | Constipation (treatment-emergent AE) (qd 2.1: 250 mg qd 5/9 (n=4)) | Constipation (treatment-related AE) (qd 2.1: 250 mg qd 5/9 (n=4)) | Decreased appetite (treatment-emergent AE) (qd 2.1: 250 mg qd 5/9 (n=4)) | Decreased appetite (treatment-related AE) (qd 2.1: 250 mg qd 5/9 (n=4)) | Dehydration (treatment-emergent AE) (qd 2.1: 250 mg qd 5/9 (n=4)) | Dehydration (treatment-related AE) (qd 2.1: 250 mg qd 5/9 (n=4)) | Dizziness (treatment-emergent AE) (qd 2.1: 250 mg qd 5/9 (n=4)) | Dyspepsia (treatment-emergent AE) (qd 2.1: 250 mg qd 5/9 (n=4)) | Dyspepsia (treatment-related AE) (qd 2.1: 250 mg qd 5/9 (n=4)) | Dyspnea (treatment-emergent AE) (qd 2.1: 250 mg qd 5/9 (n=4)) | Fall (treatment-emergent AE) (qd 2.1: 250 mg qd 5/9 (n=4)) | Fatigue (treatment-emergent AE) (qd 2.1: 250 mg qd 5/9 (n=4)) | Fatigue (treatment-related AE) (qd 2.1: 250 mg qd 5/9 (n=4)) | Headache (treatment-emergent AE) (qd 2.1: 250 mg qd 5/9 (n=4)) | Hypokalemia (treatment-emergent AE) (qd 2.1: 250 mg qd 5/9 (n=4)) | Insomnia (treatment-emergent AE) (qd 2.1: 250 mg qd 5/9 (n=4)) | Muscle spasms (treatment-emergent AE) (qd 2.1: 250 mg qd 5/9 (n=4)) | Myalgia (treatment-emergent AE) (qd 2.1: 250 mg qd 5/9 (n=4)) | Myalgia (treatment-related AE) (qd 2.1: 250 mg qd 5/9 (n=4)) | Nausea (treatment-emergent AE) (qd 2.1: 250 mg qd 5/9 (n=4)) | Nausea (treatment-related AE) (qd 2.1: 250 mg qd 5/9 (n=4)) | Neutropenia (treatment-emergent AE) (qd 2.1: 250 mg qd 5/9 (n=4)) | Neutropenia (treatment-related AE) (qd 2.1: 250 mg qd 5/9 (n=4)) | Pneumonia (treatment-emergent AE) (qd 2.1: 250 mg qd 5/9 (n=4)) | Rash (treatment-emergent AE) (qd 2.1: 250 mg qd 5/9 (n=4)) | Thrombocytopenia (treatment-emergent AE) (qd 2.1: 250 mg qd 5/9 (n=4))
1 (20.0) n (%): Dizziness (treatment-emergent AE) (qd 1.1: 200 mg qd 5/9 (n=5)) | Dyspepsia (treatment-emergent AE) (qd 1.1: 200 mg qd 5/9 (n=5)) | Fatigue (treatment-related AE) (qd 1.1: 200 mg qd 5/9 (n=5)) | Headache (treatment-emergent AE) (qd 1.1: 200 mg qd 5/9 (n=5)) | Myalgia (treatment-emergent AE) (qd 1.1: 200 mg qd 5/9 (n=5)) | Myalgia (treatment-related AE) (qd 1.1: 200 mg qd 5/9 (n=5)) | Nausea (treatment-emergent AE) (qd 1.1: 200 mg qd 5/9 (n=5)) | Nausea (treatment-related AE) (qd 1.1: 200 mg qd 5/9 (n=5)) | Neutropenia (treatment-emergent AE) (qd 1.1: 200 mg qd 5/9 (n=5)) | Neutropenia (treatment-related AE) (qd 1.1: 200 mg qd 5/9 (n=5)) | Pyrexia (treatment-emergent AE) (qd 1.1: 200 mg qd 5/9 (n=5)) | Rash (treatment-emergent AE) (qd 1.1: 200 mg qd 5/9 (n=5)) | Urinary tract infection (treatment-emergent AE) (qd 1.1: 200 mg qd 5/9 (n=5))
2 (40.0) n (%): Fatigue (treatment-emergent AE) (qd 1.1: 200 mg qd 5/9 (n=5))
3 (50.0) n (%): Any grade ≥ 3 AE (qd 1.2: 200 mg qd 5/2 (n=6)) | Diarrhea (treatment-emergent AE) (qd 1.2: 200 mg qd 5/2 (n=6)) | Edema peripheral (treatment-emergent AE) (qd 1.2: 200 mg qd 5/2 (n=6)) | Myalgia (treatment-emergent AE) (qd 1.2: 200 mg qd 5/2 (n=6)) | Myalgia (treatment-related AE) (qd 1.2: 200 mg qd 5/2 (n=6)) | Vomiting (treatment-emergent AE) (qd 1.2: 200 mg qd 5/2 (n=6)) | Vomiting (treatment-related AE) (qd 1.2: 200 mg qd 5/2 (n=6))
4 (100) n (%): Any AE (treatment-emergent) (qd 2.1: 250 mg qd 5/9 (n=4))
4 (66.7) n (%): Nausea (treatment-emergent AE) (qd 1.2: 200 mg qd 5/2 (n=6)) | Nausea (treatment-related AE) (qd 1.2: 200 mg qd 5/2 (n=6))
2 (50.0) n (%): Any grade ≥ 3 AE (qd 2.1: 250 mg qd 5/9 (n=4)) | Any treatment-related AE (qd 2.1: 250 mg qd 5/9 (n=4)) | Cough (treatment-emergent AE) (qd 2.1: 250 mg qd 5/9 (n=4))
2 (33.3) n (%): Abdominal pain (treatment-emergent AE) (qd 1.2: 200 mg qd 5/2 (n=6)) | Anemia (treatment-emergent AE) (qd 1.2: 200 mg qd 5/2 (n=6)) | Anemia (treatment-related AE) (qd 1.2: 200 mg qd 5/2 (n=6)) | Any treatment-related grade ≥ 3 AE (qd 1.2: 200 mg qd 5/2 (n=6)) | Constipation (treatment-emergent AE) (qd 1.2: 200 mg qd 5/2 (n=6)) | Dehydration (treatment-emergent AE) (qd 1.2: 200 mg qd 5/2 (n=6)) | Diarrhea (treatment-related AE) (qd 1.2: 200 mg qd 5/2 (n=6)) | Dizziness (treatment-emergent AE) (qd 1.2: 200 mg qd 5/2 (n=6)) | Headache (treatment-emergent AE) (qd 1.2: 200 mg qd 5/2 (n=6))
6 (100) n (%): Any AE (treatment-emergent) (qd 1.2: 200 mg qd 5/2 (n=6)) | Any treatment-related AE (qd 1.2: 200 mg qd 5/2 (n=6))

Reference: paper PMC10289903 (Investigational New Drugs, 2023)
